Data set [1] deals with P. falciparum male gametocytes. Description: PhIDDLI screening assay, 24 h preincubation at 10xIC50, tubulin/DAPI imaging of male gametogenesis. It is filed as cell-based, Plasmodium falciparum NF54. The following applies: approximately 10xIC50, fixed 20 min post-induction. Here is the method:
Mature gametocytes were treated for 24h with approximately 10xIC50 of test compounds or DMSO as a solvent control. Male gametogenesis was then induced by lowering the temperature from 37°C to ~20°C and adding xanthurenic acid. 20min later, when male gametogenesis (exflagellation) could be expected to peak, all samples were fixed. A sample of non-induced DMSO-treated gametocytes was fixed with 4% paraformaldehyde to provide an unactivated gametocyte control for comparison. The cells were then processed for immunofluorescence using an antibody against alpha-tubulin II and DNA staining with 4′,6-diamidino-2-phenylindole (DAPI) and visualised by fluorescence microscopy. Tubulin-bright cells from each treated sample were imaged and captured at random.
Cells were identified using a semi-automated pipeline established in the ICY BioImageAnalysis (https://icy.bioimageanalysis.org/) protocols module. Images and accompanying bounding boxes representing the outlines of identified cells were then passed to the PhIDDLI pipeline. PhIDDLI consists of several open source image processing and AI/ML modules connected for seamless processing, clustering and visualisation of cellular phenotypes (Fig 3A). […] To focus on the overall cellular phenotype rather than potentially confounding variable immunostaining intensities between experimental replicates, cells were transformed so that the range of staining intensities for each channel were normalised to fall between a 0–255 pixel intensity value. Then, using the Albumentations module (https://albumentations.ai/) to augment the dataset and control for cells in different orientations, each extracted cell image was rotated 90, 180 and 270 degrees and mirrored so that each cell was represented eight different times in the dataset. The augmented images were then passed to the EffcientNet-B1 module (https://github.com/tensorflow/tpu/tree/master/models/official/efficientnet) (a pretrained neural network developed for image processing) which extracted 1,000 distinct numerical features from each individual cell image. The EfficientNet-B1 was selected from amongst the other EfficientNet models due to its input image size (240 pixels) best matching the size of the individual cell images in the dataset, therefore ensuring maximal input data whilst allowing acceptable computation time on a desktop computer. […]
Mature gametocyte cultures were divided into 100 μl “microcultures” in pre-warmed 1.5 ml tubes also containing 100 μl complete culture medium with test compounds at a final concentration of 10xIC50 or 0.5% DMSO as a solvent control. Tubes were gassed and incubated at 37°C for 24 h. The entire compound library was screened once, spread over four different experiments, each with two DMSO control tubes. An 8% formaldehyde solution was prepared by diluting 16% methanol-free formaldehyde in an equal volume of phosphate-buffered saline (PBS). In each experiment, one DMSO control tube was fixed with equal volume of 8% formaldehyde (4% final concentration) at 37°C to provide an “unactivated” gametocyte control. Gametogenesis was then triggered in the remaining DMSO control tube and all compound tubes by adding 10 μl ookinete medium, and they were immediately incubated at room temperature. After 20 min (when exflagellation is maximal), all remaining tubes were fixed for 30 min.
100 μl of the fixed cell suspensions were added to wells of a 24 well plate containing 1ml PBS and a poly-l-lysine-coated glass coverslip.

Data set [2] has as its system HepG2 cells. In words: HepG2 cytotoxicity counter-screen. The note with it: for Mean TOX: mean of the HepG2 TOX50 values.
Data set [3] concerns P. falciparum gametocytes. In words: P. falciparum Gametocyte Viability ATP Assay (PfGCT). The format is cell-based, Plasmodium falciparum. The note with it: Mean TOX HepG2 over GC-ATP IC50; GREEN = >10-fold; RED = <10-fold.
Data set [4] concerns P. falciparum female gametocytes. Further details: method as in Miguel-Blanco et al 2017. The note with it: ref Miguel-Blanco et al 2017; read-out: Pf female gametogenesis FGAA IC50; cited from earlier work.
The test system is the same in data set [5]. Description: P. falciparum Dual Gamete Formation Assay (PfDGFA), female readout (Pfs25-positive female gametes). The format is cell-based, Plasmodium falciparum NF54. The note with it: for inhibition at 2 µM: 24h preincubation with gametocytes. The essentials: (§1)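 Day-14 NF54 gametocytes were incubated with compound for 24 h at 37°C under 1% O2/3% CO2/96% N2. Gametogenesis was triggered with ookinete medium (0.1 μM xanthurenic acid) plus Cy3-anti-Pfs25, and exflagellation was imaged by brightfield after cooling to 4°C then 28°C. Females were imaged by Pfs25 fluorescence 24 h later at 28°C.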

Data set [6] concerns HepG2 cells. The following applies: cited from earlier work.
In data set [7] the test system is P. falciparum gametocytes. Further details: method as in Almela et al 2015. The following applies: ref Almela et al 2015; read-out: Pf Gametocyte viability (ATP) GC-ATP IC50; cited from earlier work.
Data set [8] concerns P. falciparum male gametocytes. Description: P. falciparum Dual Gamete Formation Assay (PfDGFA), male readout (exflagellation). It is filed as cell-based, Plasmodium falciparum NF54. The note with it: for inhibition at 2 µM: 24h preincubation with gametocytes. In short, it runs like this: as §1
The test system of data set [9] is P. falciparum female gametocytes. In words: P. falciparum Female Gametocyte Activation Assay (PfFGAA). The format is cell-based, Plasmodium falciparum. The note with it: Mean TOX HepG2 over FGAA IC50; GREEN = >10-fold; RED = <10-fold.
Data set [10] concerns P. berghei ookinete development. In words: P. berghei Ookinete Development Assay (PbODA). It is filed as cell-based, Plasmodium berghei. The following applies: Mean TOX HepG2 over Pb ODA value; GREEN = >10-fold; RED = <10-fold.
Data set [11] deals with P. falciparum protein kinase G (PfPKG). The following applies: cited from earlier work.
For data set [12], the system named is calcium-dependent protein kinase 1 (PfCDPK1). The following applies: cited from earlier work.
Setting [13] is: this study, read-out: Pf DGFA IC50 FEM.
The mark [14] stands for this setting: this study, read-out: Pf DGFA IC50 MALE.

Read-outs that look alike come from different tables or passages of the source.

Turning to `O=S(=O)(NCC1(O)CCOc2ccccc21)c1ccc(Br)s1` (stereo not drawn) [DDD01035881, reference compound], in data set [1], the “Cellular phenotype of male gametocytes” value is reported as “arrested male gametogenesis late”.

One may read the IC50 as the point on the concentration scale where inhibition reaches its midpoint. For `O=C(c1ccc([N+](=O)[O-])o1)N1CCC(Cc2ccc(C(F)(F)F)cc2)CC1` [TC15], the “Mean TOX” value in the data set with HepG2 cells [2] was determined as 23.20 µM. In addition, the “Cytotox ratio Pf GC-ATP” value in [3] is 89.2. The IC50 in data set [4] is 160 nM; in data set [5] (setting [13]), 440 nM; in [7], 260 nM; in [8] (setting [14]), 400 nM. Besides, in data set [5], the “Cytotox ratio Pf Female” value came out at 52.7. In addition, the “Cellular phenotype of male gametocytes” value in data set [1] was “retain their falciform shape but have a condensed mass of unreplicated DNA and several thin microtubule structures”. In addition, the “FGAA TOX50 HepG2” value in the data set with HepG2 cells [6] is given as 27.05 µM. Further, in the data set with HepG2 cells [6], the “GC-ATP TOX50 HepG2” value is recorded as 14.11 µM. In addition, the “Cytotox ratio Pf Male” value in data set [8] is reported as 58.0. Further, the “Cytotox ratio Pf FGAA” value in data set [9] turned out to be 145.0.

As to `CCN(CC)CCN(Cc1ccc(-c2ccc(C(F)(F)F)cc2)cc1)C(=O)Cn1cc(Cc2cnn(C)c2)c(=O)nc1/C=C/c1cccc(F)c1F.O=C(O)C(O)C(O)C(=O)O` [TC18], in the data set with HepG2 cells [2], the “Mean TOX” value was 12.35 µM. In addition, the “Cytotox ratio Pf GC-ATP” value in data set [3] is 72.7. Besides, the IC50 is 870 nM in [4], 4100 nM in data set [5] (setting [13]), 170 nM in data set [7] and 630 nM in data set [8] (setting [14]). For the same compound, the “Cytotox ratio Pf Female” value in data set [5] stood at 3.0. Further, the “Cellular phenotype of male gametocytes” value in data set [1] is “retain their falciform shape but have a condensed mass of unreplicated DNA and several thin microtubule structures”. Besides, in the data set on HepG2 cells [6], the “FGAA TOX50 HepG2” value is recorded as 9.69 µM. Moreover, the “GC-ATP TOX50 HepG2” value in the data set on HepG2 cells [6] is given as 14.4 µM. Besides, in data set [8], the “Cytotox ratio Pf Male” value is 19.6. Besides, the “Cytotox ratio Pf FGAA” value in data set [9] is listed as 14.2.

As for `COc1cc(-c2nc(C(C)(C)CN)[nH]c2-c2ccncc2)ccc1Br.Cl` [TC27], the “Mean TOX” value in the data set on HepG2 cells [2] was determined as 41.74 µM. The “Cytotox ratio Pf Female” value in [5] amounted to 25.9. Besides, the values for the IC50 in data set [5] (setting [13]) and in data set [8] (setting [14]) were 1610 nM and 1770 nM, respectively. The “Cellular phenotype of male gametocytes” value in data set [1] is recorded as “unactivated phenotype consistent with total arrest of gametogenesis”. Besides, in the data set with HepG2 cells [6] (HepG2 value reported with the ODA screen, ref Delves et al 2019), the “ODA TOX50 HepG2” value was 39.811 µM. Moreover, the “Cytotox ratio Pf Male” value in [8] worked out at 23.6. For the same compound, in data set [10], the “Cytotox ratio Pb Ookinete” value is recorded as 31592.6.

As a reminder, the inhibition is the drop in the measured response relative to a control, in per cent. Turning to `CC(C)(CN)c1nc(-c2ccc(Cl)c(O)c2)c(-c2ccncc2)[nH]1.Cl` [TCMDC-140369], the Tox50 in the data set with HepG2 cells [2] (cytotoxic activity against HepG2 cells) came to 17.63 µM. Besides, in data set [11], the PfPKG inhibition entry is given as “PfPKG inhibitor”. Also, the inhibition at 2 µM in [5] (Plasmodium falciparum, average of replicates, read-out: Average inhibition female (%)) worked out at 51.4%; in data set [5] (Plasmodium falciparum, replicate R1, read-out: % inhibition female (individual replicates) R1) it was 22.1%; in [5] (Plasmodium falciparum, replicate R2, read-out: % inhibition female (individual replicates) R2) it was 80%; in [5] (Plasmodium falciparum, replicate R3, read-out: % inhibition female (individual replicates) R3) it was 27.7%; in data set [5] (Plasmodium falciparum, replicate R4, read-out: % inhibition female (individual replicates) R4) it was 75.6%; in data set [8] (Plasmodium falciparum, average of replicates, read-out: Average inhibition male (%)) it was 95%. For the same compound, the inhibition at 2 µM amounted to 96% in [8] (Plasmodium falciparum, replicate R1, read-out: % inhibition male (individual replicates) R1); 97.9% in data set [8] (Plasmodium falciparum, replicate R2, read-out: % inhibition male (individual replicates) R2); 95.1% in data set [8] (Plasmodium falciparum, replicate R3, read-out: % inhibition male (individual replicates) R3); 90.9% in data set [8] (Plasmodium falciparum, replicate R4, read-out: % inhibition male (individual replicates) R4). The IC50 came out at 270 nM in data set [5] (Plasmodium falciparum, PfDGFA, 24 h incubation with gametocytes before induction, female gamete readout, read-out: Female IC50) and 910 nM in data set [8] (Plasmodium falciparum, PfDGFA, 24 h incubation with gametocytes before induction, exflagellation readout, read-out: Male IC50). Besides, the “activity against PfCDPK1” value in [12] was “additional activity”.
